Laboratory results from ChEMBL document CHEMBL3885861, “Open TG-GATES”.

Species: Rattus norvegicus
Experiment: Open TG-GATES - Regimen: Daily Repeat
Format: toxicity, organism-based, Sprague-Dawley
Set-up: regimen Daily Repeat, gender Male, age 6 weeks
Conditions: in vivo, po, route gavage; for APTT / Bas / Eos / Fbg / Hb / Ht / Lym / MCH / MCHC / MCV / Mono / Neu / PT / Plat / RBC / Ret / WBC: tissue Blood; for KIDNEY_L / KIDNEY_R / KIDNEY_TOTAL: tissue Kidney; for LIVER: tissue Liver; for A/G / ALP / ALT / AST / BUN / CRE / Ca / Cl / DBIL / GLC / IP / K / LDH / Na / PL / RALB / TBIL / TC / TG / TP / gamma-GTP: tissue Plasma
[1] = 100 mg/kg, 72 h, dose level Middle, time 3 day
[2] = 100 mg/kg, […], dose level Middle, time 7 day
[3] = 100 mg/kg, […], dose level Middle, time 14 day
[4] = 100 mg/kg, […], dose level Middle, time 28 day
[5] = 300 mg/kg, 72 h, dose level High, time 3 day
[6] = 300 mg/kg, […], dose level High, time 7 day
[7] = 300 mg/kg, […], dose level High, time 14 day
[8] = 300 mg/kg, […], dose level High, time 28 day

Cc1cccc(Nc2ccccc2C(=O)O)c1C [MEFENAMIC ACID]
TERMINAL_BW [1]: 234.2 g
APTT [1]: 18.5 s
Bas [1]: 0%
Eos [1]: 1%
Fbg [1]: 242.4 mg/dL
Hb [1]: 13.5 g/dL
Ht [1]: 38.1%
Lym [1]: 79.2%
MCH [1]: 22.1 pg
MCHC [1]: 35.4%
MCV [1]: 62.4 fL
Mono [1]: 2.6%
Neu [1]: 15.6%
PT [1]: 12.1 s
Plat [1]: 122.6 x10_4/uL
RBC [1]: 611.8 x10_4/ul
Ret [1]: 5.7%
WBC [1]: 97.2 x10_2/uL
KIDNEY_L [1]: 1 g
KIDNEY_R [1]: 1 g
KIDNEY_TOTAL [1]: 2 g
LIVER [1]: 11.2 g
A/G [1]: 1.6
ALP [1]: 1044 IU/L
ALT [1]: 38.6 IU/L
AST [1]: 65.4 IU/L
BUN [1]: 14.8 mg/dL
CRE [1]: 0.4 mg/dL
Ca [1]: 10.9 mg/dL
Cl [1]: 104 meq/L
DBIL [1]: 0.098 mg/dL
GLC [1]: 189.2 mg/dL
IP [1]: 6.9 mg/dL
K [1]: 4.2 meq/L
LDH [1]: 191.6 IU/L
Na [1]: 141.8 meq/L
PL [1]: 148 mg/dL
RALB [1]: 3.4 g/dL
TBIL [1]: 0.2 mg/dL
TC [1]: 81.6 mg/dL
TG [1]: 88.2 mg/dL
TP [1]: 5.5 g/dL
gamma-GTP [1]: 1.6 IU/L
TERMINAL_BW [2]: 269.2 g
TERMINAL_BW [3]: 320.1 g
TERMINAL_BW [4]: 386.3 g
APTT [2]: 18.5 s
Bas [2]: 0%
Eos [2]: 1%
Fbg [2]: 230 mg/dL
Hb [2]: 13.6 g/dL
Ht [2]: 37.9%
Lym [2]: 80.2%
MCH [2]: 21.7 pg
MCHC [2]: 35.9%
MCV [2]: 60.6 fL
Mono [2]: 2.4%
Neu [2]: 14.4%
PT [2]: 11.9 s
Plat [2]: 121.4 x10_4/uL
RBC [2]: 626.4 x10_4/ul
Ret [2]: 5.4%
WBC [2]: 99.8 x10_2/uL
APTT [3]: 20.3 s
Bas [3]: 0%
Eos [3]: 0.8%
Fbg [3]: 246.8 mg/dL
Hb [3]: 14.4 g/dL
Ht [3]: 40.6%
Lym [3]: 76%
MCH [3]: 21.6 pg
MCHC [3]: 35.3%
MCV [3]: 61.2 fL
Mono [3]: 2.4%
Neu [3]: 18.6%
PT [3]: 12.4 s
Plat [3]: 104.3 x10_4/uL
RBC [3]: 664 x10_4/ul
Ret [3]: 4.4%
WBC [3]: 124.7 x10_2/uL
APTT [4]: 19.4 s
Bas [4]: 0%
Eos [4]: 1.2%
Fbg [4]: 261.8 mg/dL
Hb [4]: 15.8 g/dL
Ht [4]: 44.8%
Lym [4]: 75%
MCH [4]: 19.8 pg
MCHC [4]: 35.3%
MCV [4]: 56.3 fL
Mono [4]: 2.2%
Neu [4]: 20.6%
PT [4]: 12.3 s
Plat [4]: 98.4 x10_4/uL
RBC [4]: 796.8 x10_4/ul
Ret [4]: 2.3%
WBC [4]: 98.3 x10_2/uL
KIDNEY_L [2]: 1.1 g
KIDNEY_R [2]: 1.2 g
KIDNEY_TOTAL [2]: 2.2 g
KIDNEY_L [3]: 1.3 g
KIDNEY_R [3]: 1.4 g
KIDNEY_TOTAL [3]: 2.7 g
KIDNEY_L [4]: 1.4 g
KIDNEY_R [4]: 1.4 g
KIDNEY_TOTAL [4]: 2.8 g
LIVER [2]: 12 g
LIVER [3]: 14.3 g
LIVER [4]: 14.9 g
A/G [2]: 1.5
ALP [2]: 825.2 IU/L
ALT [2]: 32.8 IU/L
AST [2]: 73.2 IU/L
BUN [2]: 17 mg/dL
CRE [2]: 0.4 mg/dL
Ca [2]: 10.7 mg/dL
Cl [2]: 103.2 meq/L
DBIL [2]: 0.078 mg/dL
GLC [2]: 219.2 mg/dL
IP [2]: 6.8 mg/dL
K [2]: 3.8 meq/L
LDH [2]: 177.4 IU/L
Na [2]: 140.2 meq/L
PL [2]: 150.8 mg/dL
RALB [2]: 3.4 g/dL
TBIL [2]: 0.1 mg/dL
TC [2]: 87.2 mg/dL
TG [2]: 62.2 mg/dL
TP [2]: 5.6 g/dL
gamma-GTP [2]: 1.2 IU/L
A/G [3]: 1.4
ALP [3]: 798 IU/L
ALT [3]: 39.6 IU/L
AST [3]: 64.6 IU/L
BUN [3]: 18.2 mg/dL
CRE [3]: 0.5 mg/dL
Ca [3]: 10.6 mg/dL
Cl [3]: 103.4 meq/L
DBIL [3]: 0.086 mg/dL
GLC [3]: 208.2 mg/dL
IP [3]: 7.4 mg/dL
K [3]: 4 meq/L
LDH [3]: 138.4 IU/L
Na [3]: 140.8 meq/L
PL [3]: 149 mg/dL
RALB [3]: 3.3 g/dL
TBIL [3]: 0.2 mg/dL
TC [3]: 79 mg/dL
TG [3]: 81.8 mg/dL
TP [3]: 5.8 g/dL
gamma-GTP [3]: 1 IU/L
A/G [4]: 1.3
ALP [4]: 673 IU/L
ALT [4]: 35.4 IU/L
AST [4]: 62.4 IU/L
BUN [4]: 18 mg/dL
CRE [4]: 0.5 mg/dL
Ca [4]: 10.7 mg/dL
Cl [4]: 104.2 meq/L
DBIL [4]: 0.088 mg/dL
GLC [4]: 219.4 mg/dL
IP [4]: 6.7 mg/dL
K [4]: 3.5 meq/L
LDH [4]: 143.8 IU/L
Na [4]: 141.2 meq/L
PL [4]: 156.8 mg/dL
RALB [4]: 3.6 g/dL
TBIL [4]: 0.1 mg/dL
TC [4]: 89.8 mg/dL
TG [4]: 81.6 mg/dL
TP [4]: 6.3 g/dL
gamma-GTP [4]: 1.6 IU/L
TERMINAL_BW [5]: 221.3 g
APTT [5]: 18.9 s
Bas [5]: 0%
Eos [5]: 1%
Fbg [5]: 345 mg/dL
Hb [5]: 9.4 g/dL
Ht [5]: 28%
Lym [5]: 61.8%
MCH [5]: 21.6 pg
MCHC [5]: 33.5%
MCV [5]: 64.6 fL
Mono [5]: 3.8%
Neu [5]: 28.4%
PT [5]: 11.3 s
Plat [5]: 117.3 x10_4/uL
RBC [5]: 434.2 x10_4/ul
Ret [5]: 13.5%
WBC [5]: 154.9 x10_2/uL
KIDNEY_L [5]: 1 g
KIDNEY_R [5]: 1 g
KIDNEY_TOTAL [5]: 2 g
LIVER [5]: 11 g
A/G [5]: 1.2
ALP [5]: 624.6 IU/L
ALT [5]: 28.6 IU/L
AST [5]: 54.6 IU/L
BUN [5]: 15 mg/dL
CRE [5]: 0.4 mg/dL
Ca [5]: 10.7 mg/dL
Cl [5]: 103.4 meq/L
DBIL [5]: 0.08 mg/dL
GLC [5]: 175 mg/dL
IP [5]: 6.7 mg/dL
K [5]: 4.1 meq/L
LDH [5]: 155.2 IU/L
Na [5]: 140.2 meq/L
PL [5]: 170.6 mg/dL
RALB [5]: 2.7 g/dL
TBIL [5]: 0.1 mg/dL
TC [5]: 88.4 mg/dL
TG [5]: 161.8 mg/dL
TP [5]: 4.9 g/dL
gamma-GTP [5]: 1.2 IU/L
TERMINAL_BW [6]: 251.1 g
TERMINAL_BW [7]: 275.2 g
TERMINAL_BW [8]: 342.8 g
APTT [6]: 17.3 s
Bas [6]: 0%
Eos [6]: 1%
Fbg [6]: 304.2 mg/dL
Hb [6]: 11.1 g/dL
Ht [6]: 32.3%
Lym [6]: 63.6%
MCH [6]: 22 pg
MCHC [6]: 34.4%
MCV [6]: 64.1 fL
Mono [6]: 3.4%
Neu [6]: 28.2%
PT [6]: 11.5 s
Plat [6]: 160 x10_4/uL
RBC [6]: 506.4 x10_4/ul
Ret [6]: 14.9%
WBC [6]: 201.4 x10_2/uL
APTT [7]: 19.6 s
Bas [7]: 0%
Eos [7]: 1%
Fbg [7]: 291.8 mg/dL
Hb [7]: 11.2 g/dL
Ht [7]: 33.5%
Lym [7]: 56.8%
MCH [7]: 23.9 pg
MCHC [7]: 33.2%
MCV [7]: 71.9 fL
Mono [7]: 2.8%
Neu [7]: 37.2%
PT [7]: 11.9 s
Plat [7]: 200.5 x10_4/uL
RBC [7]: 466.8 x10_4/ul
Ret [7]: 18.8%
WBC [7]: 198.5 x10_2/uL
APTT [8]: 19 s
Bas [8]: 0%
Eos [8]: 0.8%
Fbg [8]: 318 mg/dL
Hb [8]: 10 g/dL
Ht [8]: 32.3%
Lym [8]: 54.2%
MCH [8]: 21.1 pg
MCHC [8]: 30.8%
MCV [8]: 68.5 fL
Mono [8]: 2.8%
Neu [8]: 39.2%
PT [8]: 11.6 s
Plat [8]: 186.5 x10_4/uL
RBC [8]: 473 x10_4/ul
Ret [8]: 22.3%
WBC [8]: 274.1 x10_2/uL
KIDNEY_L [6]: 1.2 g
KIDNEY_R [6]: 1.1 g
KIDNEY_TOTAL [6]: 2.3 g
KIDNEY_L [7]: 1.2 g
KIDNEY_R [7]: 1.2 g
KIDNEY_TOTAL [7]: 2.4 g
KIDNEY_L [8]: 1.4 g
KIDNEY_R [8]: 1.4 g
KIDNEY_TOTAL [8]: 2.8 g
LIVER [6]: 12.2 g
LIVER [7]: 13.3 g
LIVER [8]: 15.2 g
A/G [6]: 1.3
ALP [6]: 574.4 IU/L
ALT [6]: 29.6 IU/L
AST [6]: 60.6 IU/L
BUN [6]: 15.8 mg/dL
CRE [6]: 0.4 mg/dL
Ca [6]: 10.3 mg/dL
Cl [6]: 103.6 meq/L
DBIL [6]: 0.084 mg/dL
GLC [6]: 197.2 mg/dL
IP [6]: 7.3 mg/dL
K [6]: 3.9 meq/L
LDH [6]: 227.8 IU/L
Na [6]: 140.6 meq/L
PL [6]: 150.4 mg/dL
RALB [6]: 2.9 g/dL
TBIL [6]: 0.1 mg/dL
TC [6]: 79.4 mg/dL
TG [6]: 136.4 mg/dL
TP [6]: 5 g/dL
gamma-GTP [6]: 1 IU/L
A/G [7]: 1.2
ALP [7]: 476.5 IU/L
ALT [7]: 30 IU/L
AST [7]: 57.2 IU/L
BUN [7]: 19.2 mg/dL
CRE [7]: 0.5 mg/dL
Ca [7]: 10.4 mg/dL
Cl [7]: 104 meq/L
DBIL [7]: 0.1 mg/dL
GLC [7]: 187.5 mg/dL
IP [7]: 6.5 mg/dL
K [7]: 4.4 meq/L
LDH [7]: 145.2 IU/L
Na [7]: 141.5 meq/L
PL [7]: 162.2 mg/dL
RALB [7]: 2.9 g/dL
TBIL [7]: 0.1 mg/dL
TC [7]: 78 mg/dL
TG [7]: 170.2 mg/dL
TP [7]: 5.2 g/dL
gamma-GTP [7]: 1.8 IU/L
A/G [8]: 1.2
ALP [8]: 382.8 IU/L
ALT [8]: 30.8 IU/L
AST [8]: 68.2 IU/L
BUN [8]: 20.5 mg/dL
CRE [8]: 0.5 mg/dL
Ca [8]: 10.4 mg/dL
Cl [8]: 104.2 meq/L
DBIL [8]: 0.1 mg/dL
GLC [8]: 190.5 mg/dL
IP [8]: 6.6 mg/dL
K [8]: 3.7 meq/L
LDH [8]: 166.2 IU/L
Na [8]: 141.2 meq/L
PL [8]: 176.8 mg/dL
RALB [8]: 2.9 g/dL
TBIL [8]: 0.2 mg/dL
TC [8]: 87.2 mg/dL
TG [8]: 212 mg/dL
TP [8]: 5.3 g/dL
gamma-GTP [8]: 2 IU/L
